Test results from paper PMC12073189, “Synthesis and Evaluation of a Novel Zuranolone Analog with High GABAA Receptor PAM Activity and Excellent Pharmacokinetic Profiles” (Molecules, 2025).

What was measured:
[1] = Liver microsome metabolic stability (RLM); type: in vitro ADME, rat; details: pH 7.4; rat liver microsomes; read-out: RLM T1/2
Procedure: (§1) We quantified S1–S15 and Zuranolone using a UPLC-MS/MS (Agilent 1290 Infinity II UHPLC (Agilent Technologies, Santa Clara, CA, USA) coupled with a QTRAP 5500 MS/MS (ESI source) (SCIEX, Redwood City, CA, USA for MS/MS). The method assessed the content level of S9 and Zuranolone in microsome metabolism and in rat brain tissue and plasma. An ACQUITY UPLC Peptide BEH C18 column (Waters; 50 × 2.1 mm, 1.7 μm; 60 °C; Waters Corporation, Milford, MA, USA) was used with a mobile phase of 0.02% propionic acid in water (A) and acetonitrile (B). The gradient elution of the mobile phase B is carried out as follows: it is 10% from 0 to 0.5 min, 90% from 0.8 to 2.5 min, and 10% from 2.8 to 3.5 min, with a flow rate of 0.40 mL/min. Quantitative analysis was performed on a QTRAP 5500 MS (SCIEX, Redwood City, CA, USA) in positive ionization mode with MRM (multiple reaction monitoring), using progesterone-d9 as the internal standard. MRM transitions and parameters were optimized for each analyte, with collision energies of 25 V (S1–S15), 23 V (Zuranolone), and 30 V (IS), and declustering potentials of 80 V (S1–S15), 90 V (Zuranolone), and 180 V (IS). Other conditions were as follows: curtain gas 10 psi, collision gas ‘medium’, ion spray voltage 5500 V, temperature 500 °C, and ionization source gases 1 and 2 at 50 psi.
(§2) To evaluate the metabolic stability of compounds S1–S15 and Zuranolone in RLM and HLM, we designed the following in vitro liver microsome metabolism assay protocol. In a 1.5 mL centrifuge tube, sequentially add 173 μL of PBS (0.1 M, pH 7.4), 5 μL of liver microsomes (20 mg/mL), and 2 μL of the test compound (100 μmol/L). After thorough mixing, pre-incubate at 37 °C for 10 min. Subsequently, add 20 μL of NADPH to initiate the metabolism, with a parallel control without NADPH, to validate the background signal. Samples were collected at 0, 5, 10, 20, 30, and 60 min post-reaction initiation. At each designated time point, we quenched the reaction with ice-cold acetonitrile (600 μL). After centrifuging the mixture, we analyzed the supernatant using UPLC-MS/MS. For data analysis, the compound concentration at 0 min was set as 100%, with concentrations at subsequent time points expressed as residual percentages relative to the initial value, and the in vitro half-life (T1/2) and intrinsic clearance (CLint) were calculated.

[2] = Liver microsome metabolic stability (HLM); type: in vitro ADME, human; details: pH 7.4; human liver microsomes; read-out: HLM T1/2
Procedure: as §1, §2

α1β2γ2 GABAA receptor = target: T1, α1β2γ2 GABAA receptor (Homo sapiens, UniProt P14867+P47870); assay: Whole-cell electrophysiology of GABA-evoked currents, LTK cells; type: cell-based; details: for EC50 / Emax: LTK cells, n = 3; for EC50: 1 μmol/L GABA (EC20), read-out: α1β2γ2 EC50; for Emax: current induced by 1 μmol/L GABA = 100%; for activity as % of that of Zuranolone: GABAA receptor subtypes
T1 construct: expressed in transfected cells
Procedure: (§3) The α1β2γ2 and α4β3δ GABAA receptor subtypes, representing synaptic and extrasynaptic subunit compositions in neurons, are widely utilized for screening new NAS drugs. In this study, a preliminary SAR study was conducted on a series of Zuranolone analogs using the LogP values predicted by ADMETlab3.0 software, recombinant human GABAA receptor cell lines, and in vitro liver microsome stability assays. The results are summarized in Table 1, Table 2, and Table 3, respectively.
(§4) The effects of Zuranolone and synthetic analogs on GABA-evoked currents were assessed in LTK cells stably expressing α1β2γ2 GABAA receptor subunits (n = 3) or CHO cells transiently expressing α4β3δ receptors (n = 3). Whole-cell mode recordings were conducted using the HEKA EPC-10 amplifier and analyzed with PatchMaster software (version 2x90, HEKA Elektronik, Lambrecht, Germany). High-throughput whole-cell recordings were performed using the Q-Patch method from Sophion. Test substances were dissolved in DMSO (dimethyl sulfoxide) to prepare 10 mmol/L stock solutions, then diluted with perfusion bath solution to concentrations ranging from 0.01 to 10 μmol/L. In this experiment, the effects of Zuranolone and its synthetic analogs on GABA-induced currents were examined in the presence of a submaximal agonist concentration at 1 μmol/L GABA (EC20). Cells were pre-incubated with increasing doses of test substances for 30 s, followed by 2 s of GABA stimulation, and currents were recorded. The maximum efficacy (Emax) of the GABAA receptor is expressed with the current induced by 1 μmol/L GABA taken as 100%, and the percentage after treatment with the test compound is calculated. The EC50 values are determined by fitting the three concentration–response curves recorded from three cells.

α4β3δ GABAA receptor = target: T2, α4β3δ GABAA receptor (Homo sapiens, UniProt P28472+P48169); assay: Whole-cell electrophysiology of GABA-evoked currents, CHO cells; type: cell-based; details: for EC50 / Emax: CHO cells, n = 3; for EC50: 1 μmol/L GABA (EC20), read-out: α4β3δ EC50; for Emax: current induced by 1 μmol/L GABA = 100%
T2 construct: expressed in transfected cells; host or cells: CHO cells (transient expression)
Procedure: as §3, §4

T1 sequence (P14867 28-456): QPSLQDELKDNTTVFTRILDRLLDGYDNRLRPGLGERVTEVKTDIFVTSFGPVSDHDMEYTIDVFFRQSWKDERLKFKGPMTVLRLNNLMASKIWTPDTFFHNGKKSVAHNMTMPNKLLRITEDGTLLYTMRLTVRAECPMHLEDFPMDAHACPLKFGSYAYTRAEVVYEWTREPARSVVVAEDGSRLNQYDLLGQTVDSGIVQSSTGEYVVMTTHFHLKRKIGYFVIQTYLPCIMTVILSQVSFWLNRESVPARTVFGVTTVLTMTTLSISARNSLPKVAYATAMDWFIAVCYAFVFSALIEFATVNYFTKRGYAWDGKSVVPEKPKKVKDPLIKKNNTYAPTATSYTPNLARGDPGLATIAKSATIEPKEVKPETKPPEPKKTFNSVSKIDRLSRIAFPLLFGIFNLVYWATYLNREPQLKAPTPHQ
T1 sequence (P47870 25-512 limits assumed): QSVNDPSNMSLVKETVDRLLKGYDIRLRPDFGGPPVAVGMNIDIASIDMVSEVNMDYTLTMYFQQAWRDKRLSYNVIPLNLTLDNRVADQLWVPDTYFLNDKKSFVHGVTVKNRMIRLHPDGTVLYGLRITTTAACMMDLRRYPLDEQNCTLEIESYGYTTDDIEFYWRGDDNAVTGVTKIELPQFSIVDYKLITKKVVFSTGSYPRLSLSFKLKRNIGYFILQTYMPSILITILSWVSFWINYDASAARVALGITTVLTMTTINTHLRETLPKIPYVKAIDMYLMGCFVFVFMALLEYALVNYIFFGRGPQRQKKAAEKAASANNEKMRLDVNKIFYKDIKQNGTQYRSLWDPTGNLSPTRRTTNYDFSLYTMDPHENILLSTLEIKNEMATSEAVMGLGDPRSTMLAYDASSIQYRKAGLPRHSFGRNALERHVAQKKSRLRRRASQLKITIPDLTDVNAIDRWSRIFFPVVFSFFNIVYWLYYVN
T1 sequence (P18507 40-475 partner): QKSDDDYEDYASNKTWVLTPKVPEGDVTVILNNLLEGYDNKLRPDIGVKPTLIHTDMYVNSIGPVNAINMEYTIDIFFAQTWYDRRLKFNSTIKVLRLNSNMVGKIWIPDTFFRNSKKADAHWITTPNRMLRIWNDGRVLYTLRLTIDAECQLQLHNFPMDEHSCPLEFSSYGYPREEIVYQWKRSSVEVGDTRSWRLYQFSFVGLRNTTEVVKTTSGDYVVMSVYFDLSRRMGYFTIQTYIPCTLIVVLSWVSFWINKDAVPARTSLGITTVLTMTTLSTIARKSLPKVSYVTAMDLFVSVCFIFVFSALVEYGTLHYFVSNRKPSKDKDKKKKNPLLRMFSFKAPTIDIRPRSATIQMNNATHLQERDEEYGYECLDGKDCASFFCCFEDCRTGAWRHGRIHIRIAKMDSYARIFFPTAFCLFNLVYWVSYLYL
T2 sequence (P48169 36-554): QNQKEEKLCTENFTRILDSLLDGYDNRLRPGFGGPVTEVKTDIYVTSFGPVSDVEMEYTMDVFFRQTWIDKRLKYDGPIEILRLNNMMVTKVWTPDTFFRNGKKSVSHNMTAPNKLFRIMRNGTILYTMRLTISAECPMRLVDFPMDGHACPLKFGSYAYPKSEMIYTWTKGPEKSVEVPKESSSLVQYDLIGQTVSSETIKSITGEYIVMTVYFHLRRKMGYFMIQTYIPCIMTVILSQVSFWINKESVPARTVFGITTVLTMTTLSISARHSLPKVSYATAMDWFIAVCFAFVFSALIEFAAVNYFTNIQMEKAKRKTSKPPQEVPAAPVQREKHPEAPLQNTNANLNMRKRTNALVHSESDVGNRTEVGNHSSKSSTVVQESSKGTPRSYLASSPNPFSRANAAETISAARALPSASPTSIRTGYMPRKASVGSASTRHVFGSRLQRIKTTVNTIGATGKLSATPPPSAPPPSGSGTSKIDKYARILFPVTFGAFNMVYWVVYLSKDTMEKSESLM
T2 sequence (P28472 26-473): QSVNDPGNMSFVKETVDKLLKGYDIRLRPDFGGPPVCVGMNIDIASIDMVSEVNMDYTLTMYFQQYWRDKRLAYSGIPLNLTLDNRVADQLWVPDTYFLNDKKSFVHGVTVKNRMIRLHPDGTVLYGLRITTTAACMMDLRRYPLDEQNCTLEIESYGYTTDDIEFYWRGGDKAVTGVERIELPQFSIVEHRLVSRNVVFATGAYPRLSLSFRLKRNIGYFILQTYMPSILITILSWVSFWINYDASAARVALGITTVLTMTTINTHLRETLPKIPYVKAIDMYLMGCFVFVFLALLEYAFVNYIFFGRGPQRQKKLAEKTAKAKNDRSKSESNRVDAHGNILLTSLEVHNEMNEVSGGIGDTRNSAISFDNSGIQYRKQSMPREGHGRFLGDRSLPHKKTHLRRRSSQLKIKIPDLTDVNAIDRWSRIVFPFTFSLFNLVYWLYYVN
T2 sequence (O14764 25-452 partner): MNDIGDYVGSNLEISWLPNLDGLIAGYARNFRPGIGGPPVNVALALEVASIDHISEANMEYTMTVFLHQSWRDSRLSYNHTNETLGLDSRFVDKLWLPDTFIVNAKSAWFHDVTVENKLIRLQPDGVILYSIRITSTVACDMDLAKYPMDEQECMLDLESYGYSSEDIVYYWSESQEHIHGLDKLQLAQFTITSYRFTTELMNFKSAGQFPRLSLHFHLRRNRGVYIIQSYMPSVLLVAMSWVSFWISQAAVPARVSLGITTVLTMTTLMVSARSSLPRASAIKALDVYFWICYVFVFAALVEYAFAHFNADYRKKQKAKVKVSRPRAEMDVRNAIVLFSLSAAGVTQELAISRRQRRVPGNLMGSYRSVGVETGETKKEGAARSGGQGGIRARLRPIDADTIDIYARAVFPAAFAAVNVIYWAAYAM

Structure (SMILES)	half-life at 1 µM [1] [min]	half-life at 1 µM [2] [min]	EC50 (α1β2γ2 GABAA receptor) [nM]	Emax (α1β2γ2 GABAA receptor) [%]	EC50 (α4β3δ GABAA receptor) [nM]	Emax (α4β3δ GABAA receptor) [%]	half-life at 1 μmol/L [1] [min]	half-life at 1 μmol/L [2] [min]	activity as % of that of Zuranolone (α1β2γ2 GABAA receptor; not separated)	potency higher than Zuranolone (α1β2γ2 GABAA receptor; synaptic and extrasynaptic GABAA receptor subtypes, not separated)	potency as % of that of Zuranolone (α1β2γ2 GABAA receptor; synaptic GABAA receptors) [%]	potency as % of that of Zuranolone (α4β3δ GABAA receptor; extrasynaptic GABAA receptors) [%]
COCCn1ncn(CC(=O)[C@H]2CC[C@H]3[C@@H]4CC[C@@H]5C[C@](C)(O)CC[C@@H]5[C@H]4CC[C@]23C)c1=O [S1]	11	34	227 ± 52	735 ± 75	86 ± 25	609 ± 83						
C[C@@]1(O)CC[C@H]2[C@H](CC[C@@H]3[C@@H]2CC[C@]2(C)[C@@H](C(=O)Cn4ncn(CC5CC5)c4=O)CC[C@@H]32)C1 [S2]			58 ± 10	320 ± 25	140 ± 10	450 ± 35						
COc1ccc(-n2ncn(CC(=O)[C@H]3CC[C@H]4[C@@H]5CC[C@@H]6C[C@](C)(O)CC[C@@H]6[C@H]5CC[C@]34C)c2=O)cn1 [S3]			167 ± 37	389 ± 50	134 ± 32	474 ± 53	16	73	less than 50%			
Cc1cc(-n2ncn(CC(=O)[C@H]3CC[C@H]4[C@@H]5CC[C@@H]6C[C@](C)(O)CC[C@@H]6[C@H]5CC[C@]34C)c2=O)cc(C)n1 [S4]			171 ± 40	691 ± 72	41 ± 19	563 ± 85			less than 50%			
C[C@@]1(O)CC[C@H]2[C@H](CC[C@@H]3[C@@H]2CC[C@]2(C)[C@@H](C(=O)Cn4cnn(-c5cccnc5)c4=O)CC[C@@H]32)C1 [S5]			373 ± 45	773 ± 87	61 ± 15	391 ± 64	11	24				
C[C@@]1(O)CC[C@H]2[C@H](CC[C@@H]3[C@@H]2CC[C@]2(C)[C@@H](C(=O)Cn4cnn(-c5cc(Cl)ccn5)c4=O)CC[C@@H]32)C1 [S7]			109 ± 27	624 ± 29	72 ± 21	589 ± 63	21	69		approximately 10%		
C[C@@]1(O)CC[C@H]2[C@H](CC[C@@H]3[C@@H]2CC[C@]2(C)[C@@H](C(=O)Cn4cnn(-c5ccnc(C(F)F)c5)c4=O)CC[C@@H]32)C1 [S8]			83 ± 24	600 ± 69	49 ± 15	432 ± 55	29	23			140	150
C[C@@]1(O)CC[C@H]2[C@H](CC[C@@H]3[C@@H]2CC[C@]2(C)[C@@H](C(=O)Cn4ncn(-c5ccc(F)cc5)c4=O)CC[C@@H]32)C1 [S10]			12.4 ± 5	294 ± 52	148 ± 25	428 ± 45	10	33	less than 50%			
C[C@@]1(O)CC[C@H]2[C@H](CC[C@@H]3[C@@H]2CC[C@]2(C)[C@@H](C(=O)Cn4cnn(-c5cccc(C(N)=O)c5)c4=O)CC[C@@H]32)C1 [S12]			153 ± 33	764 ± 65	159 ± 20	386 ± 50	18	29	less than 50%			
C[C@@]1(O)CC[C@H]2[C@H](CC[C@@H]3[C@@H]2CC[C@]2(C)[C@@H](C(=O)Cn4cnn(-c5cc(F)cc(C#N)c5)c4=O)CC[C@@H]32)C1 [S13]			72 ± 16	518 ± 87	37 ± 12	549 ± 101	90	40				
C[C@@]1(O)CC[C@H]2[C@H](CC[C@@H]3[C@@H]2CC[C@]2(C)[C@@H](C(=O)Cn4cnn(CCOC(F)(F)F)c4=O)CC[C@@H]32)C1 [S14]			770 ± 104	576 ± 78	460 ± 59	889 ± 126	23	31				
C[C@@]1(O)CC[C@H]2[C@H](CC[C@@H]3[C@@H]2CC[C@]2(C)[C@@H](C(=O)Cn4c(=O)n(-c5ccccc5)c5ccccc54)CC[C@@H]32)C1 [S15]			31 ± 12	305 ± 62	55 ± 15	470 ± 94	210	248				
